Data as given in patent US8956589B2, “Imaging diagnostic agent and extracorporeal diagnostic agent for incurable neurological diseases” (Shiga University of Medical Science, priority 2009, dated 2015).
pIC50: −log10 of the molar value.

Legend:
[1] = molecular target: amyloid β peptide aggregates (1-40) (Homo sapiens (Human), UniProt P05067); assay type: binding; conditions: for pIC50: aggregates 1 μM, thioflavin-T 3 μM, compound 0.02 to 20 μM, 30 minutes at 23° C., read-out: Amyloid binding property (IC50); for binding to amyloid β peptide aggregates (in words): thioflavin-T fluorescence inhibition
Experimental: The binding capacity of the compounds to an amyloid β peptide aggregate was quantitatively measured by a thioflavin-T fluorescence inhibition test. […] The resultant solution was cause to react for 30 minutes at 23° C. with the light shielded. Then, the fluorescence of thioflavin-T was measured under a condition of Ex=440 nm, Em=490 nm, Cutoff filter=475 nm. The IC50 values were calculated by using an analysis software, GraphPad PRISM Ver.5 (GraphPad Software, Inc.).

[2] = molecular target: amyloid β peptide aggregates (Homo sapiens (Human), UniProt P05067); assay: Binding to and release from precipitated amyloid β peptide aggregates (absorbance of supernatant); conditions: compound 2 μg/mL in phosphate buffer, 1 hour reaction
Experimental: Each of compound 23, compound 1, and compound 24 is dissolved at a concentration of 2 μg/mL, in a phosphate buffer, and then amyloid β peptide aggregates are added to each solution, and the resultant solution is caused to react for 1 hour. Then, the solution is centrifuged for 10 minutes at 6,000 rpm, to separate the amyloid β peptide aggregates. A supernatant was removed, and an absorbance measurement was performed to measure the quantity of the compound that had not bound to the amyloid peptide aggregates and that were contained in the supernatant. The obtained quantity was subtracted from the original quantity of the compound, whereby the quantity of the compound that had bound to the amyloid β peptide aggregates was calculated.
Next, the precipitated amyloid β peptide aggregates were washed, a buffer was added thereto, and the quantity of the compound that got released was measured. Then, the rate of the compound that had bound to amyloid β peptide aggregates and then was eluted into the buffer was calculated using the original quantity of the compound as 100%.

amyloid β peptide aggregates (1-40), sequence (P05067 672-711): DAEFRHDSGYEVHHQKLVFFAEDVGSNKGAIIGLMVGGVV
amyloid β peptide aggregates, sequence (P05067 672-711): as above

Compound	pIC50 ([1]; pH 7.4)	melting point	binding to amyloid β peptide aggregates (in words) [1]	binding rate to amyloid β peptide aggregates [2] [%]	solubility remark in amyloid binding test ([1]; pH 7.4)
O=C(O)CCC(C(=O)/C=C/c1ccc(O)c(OC(F)(F)F)c1)C(=O)/C=C/c1ccc(O)c(OC(F)(F)F)c1 [Compound 2, 1,7-bis(4′-hydroxy-3′-trifluoromethoxyphenyl)-4-carboxylethyl-1,6-heptadiene-3,5-dione]	5.89				
COC(=O)CCC(C(=O)/C=C/c1ccc(OC)c(F)c1)C(=O)/C=C/c1ccc(OC)c(F)c1 [Compound 3]		170 to 171 °C			
COc1ccc(/C=C/C(=O)C(CCC(=O)O)C(=O)/C=C/c2ccc(OC)c(F)c2)cc1F [Compound 4]		171 to 172 °C			
COC(=O)CC(C(=O)/C=C/c1ccc(O)c(OC(F)(F)F)c1)C(=O)/C=C/c1ccc(O)c(OC(F)(F)F)c1 [Compound 5]	6.28	140 to 141 °C			
COC(=O)CCCC(C(=O)/C=C/c1ccc(O)c(OC(F)(F)F)c1)C(=O)/C=C/c1ccc(O)c(OC(F)(F)F)c1 [Compound 6]	6.51	147 to 148 °C			
CCOC(=O)C(C(=O)/C=C/c1ccc(O)c(OC(F)(F)F)c1)C(=O)/C=C/c1ccc(O)c(OC(F)(F)F)c1 [Compound 7]	6.85	179 to 180 °C			
CCOC(=O)CCC(C(=O)/C=C/c1ccc(O)c(OC(F)(F)F)c1)C(=O)/C=C/c1ccc(O)c(OC(F)(F)F)c1 [Compound 8]	6.42	155 to 156 °C			
CC(C)(C)OC(=O)CCC(C(=O)/C=C/c1ccc(O)c(OC(F)(F)F)c1)C(=O)/C=C/c1ccc(O)c(OC(F)(F)F)c1 [Compound 9]	6.19	175 °C			
CC(C)OC(=O)CCC(C(=O)/C=C/c1ccc(O)c(OC(F)(F)F)c1)C(=O)/C=C/c1ccc(O)c(OC(F)(F)F)c1 [Compound 10]		191 °C			
COC(=O)CCC(C(=O)/C=C/c1cc(F)c(O)c(F)c1)C(=O)/C=C/c1cc(F)c(O)c(F)c1 [Compound 11]		178 to 179 °C			
COc1ccc(/C=C/C(=O)C(CCC(=O)[O-])C(=O)/C=C/c2ccc(OC)c(F)c2)cc1F.[Na+] [Compound 12]		> 200 °C			
CC(=O)OCCCC(C(=O)/C=C/c1ccc(O)c(OC(F)(F)F)c1)C(=O)/C=C/c1ccc(O)c(OC(F)(F)F)c1 [Compound 13, 1,7-bis(4′-hydroxy-3′-trifluoromethoxyphenyl)-4-acetoxypropyl-1,6-heptadiene-3,5-dione]		130 to 131 °C			
COC(=O)CCC(C(=O)/C=C/c1ccc(O)c(C(F)(F)F)c1)C(=O)/C=C/c1ccc(O)c(C(F)(F)F)c1 [Compound 14]	6.44	183 °C			
N#CCCC(C(=O)/C=C/c1ccc(O)c(OC(F)(F)F)c1)C(=O)/C=C/c1ccc(O)c(OC(F)(F)F)c1 [Compound 15]	6.52	134 to 135 °C			
CC(C(=O)/C=C/c1ccc(O)c(OC(F)(F)F)c1)C(=O)/C=C/c1ccc(O)c(OC(F)(F)F)c1 [Compound 16]	6.49	178 to 179 °C			
COC(=O)CCC(C(=O)C=Cc1ccc(OC(C)=O)c(OC(F)(F)F)c1)C(=O)C=Cc1ccc(OC(C)=O)c(OC(F)(F)F)c1 (centres unmarked) [Compound 17, 1,7-bis(4′-acetoxy-3′-trifluoromethoxyphenyl)-4-methoxycarbonylethyl-1,6-heptadiene-3,5-dione]		149 to 150 °C			
COC(=O)CCC(C(=O)/C=C/c1ccc(O)c(OC(F)(F)F)c1)C(=O)/C=C/c1ccc(OC(C)=O)c(OC(F)(F)F)c1 (centres unmarked) [Compound 18]		124 to 126 °C			
COCOCCCC(C(=O)/C=C/c1ccc(O)c(OC(F)(F)F)c1)C(=O)/C=C/c1ccc(O)c(OC(F)(F)F)c1 [Compound 20]	6.30				
CN(C)C(=O)CCC(C(=O)/C=C/c1ccc(O)c(OC(F)(F)F)c1)C(=O)/C=C/c1ccc(O)c(OC(F)(F)F)c1 [Compound 21]	6.30	192 to 193 °C			
O=C(/C=C/c1ccc(O)c(OC(F)(F)F)c1)C(CCOCCO)C(=O)/C=C/c1ccc(O)c(OC(F)(F)F)c1 [Compound 22, 1,7-bis(4′-hydroxy-3′-trifluoromethoxyphenyl)-4-(2′-hydroxyethoxyethyl)-1,6-heptadiene-3,5-dione]	6.15	112 to 114 °C			
O=C(/C=C/c1ccc(O)c(OC(F)(F)F)c1)CC(=O)/C=C/c1ccc(O)c(OC(F)(F)F)c1 [Compound 23]	6.68	172 to 173 °C	strongly bound	85	
CC(C)(C(=O)/C=C/c1ccc(O)c(OC(F)(F)F)c1)C(=O)/C=C/c1ccc(O)c(OC(F)(F)F)c1 [Compound 24, reference compound]	< 4.82		scarcely bound	27	
COC(=O)COc1ccc(/C=C/C(=O)CC(=O)/C=C/c2ccc(O)c(OC)c2)cc1OC [Compound 25]	6.85	88 to 90 °C			
COc1cc(/C=C/C(=O)CC(=O)/C=C/c2ccc(OCC(=O)O)c(OC)c2)ccc1O [Compound 26]	6.51	190 to 192 °C (dec.)			
COc1cc(/C=C/C(=O)CC(=O)/C=C/c2ccc(O)c(C(F)(F)F)c2)ccc1O [Compound 27]	6.89	200 °C			
CNc1ccc(/C=C/C(=O)CC(=O)/C=C/c2ccc(NC)c(C(F)(F)F)c2)cc1C(F)(F)F [Compound 28]	5.24	192 to 194 °C			hardly soluble
COc1cc(/C=C/C(=O)CC(=O)/C=C/c2cncc(C(F)(F)F)c2)ccc1O [Compound 29]	7.00	187 to 189 °C			
COC(=O)CCC(C(=O)/C=C/c1ccc(O)c(OC(F)(F)F)c1)C(=O)/C=C/c1ccco1 (centres unmarked) [Compound 30]	6.19	141 °C			
